Reference: the supplement of paper PMC11061612

Key:
Assay in all cases: combination Emax (second highest fraction inhibited in the dose matrix, 72 h); higher = more inhibition; extreme values may be limits of the assay
[1] = test system: RD (Rhabdomyosarcoma)
How it was run: (§1)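 Bliss excess equals the observed combination effect minus the expected value EA + EB − EA·EB, where EA and EB are the effects of each agent alone. Combination Emax is the second-highest inhibition within the matrix. Inhibition was scaled from CellTiter-Glo 2.0 luminescence, with 0 set by vehicle wells and 1 by blank wells, after 72 hours of two-drug dosing of cells plated in 1536-well plates.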

[2] = test system: SK-GT-4 (Esophageal Adenocarcinoma)
How it was run: as §1

[3] = test system: MN-60 (B-Lymphoblastic Leukemia)
How it was run: as §1

[4] = test system: NCI-H2731 (Mesothelioma)
How it was run: as §1

[5] = test system: SK-GT-2 (Gastric Carcinoma)
How it was run: as §1

[6] = test system: VMRC-RCZ (Kidney Carcinoma)
How it was run: as §1

[7] = test system: KYSE-270 (Esophageal Squamous Cell Carcinoma)
How it was run: as §1

[8] = test system: SU-DHL-5 (B-Cell Non-Hodgkin's Lymphoma)
How it was run: as §1

[9] = test system: NCI-H3122 (Lung Adenocarcinoma)
How it was run: as §1

[10] = test system: 8505C (Thyroid Gland Carcinoma)
How it was run: as §1

[11] = test system: ST486 (Burkitt's Lymphoma)
How it was run: as §1

[12] = test system: IM-95 (Gastric Carcinoma)
How it was run: as §1

[13] = test system: KMS-12-BM (Plasma Cell Myeloma)
How it was run: as §1

[14] = test system: NCI-H526 (Small Cell Lung Carcinoma)
How it was run: as §1

[15] = test system: COR-L279 (Small Cell Lung Carcinoma)
How it was run: as §1

[16] = test system: NCI-H520 (Squamous Cell Lung Carcinoma)
How it was run: as §1

[17] = test system: KY821 (Acute Myeloid Leukemia)
How it was run: as §1

[18] = test system: JHH-4 (Hepatocellular Carcinoma)
How it was run: as §1

[19] = test system: KP-3 (Pancreatic Carcinoma)
How it was run: as §1

[20] = test system: M059J (Glioblastoma)
How it was run: as §1

Row | SMILES | combination Emax [1] | combination Emax [2] | combination Emax [3] | combination Emax [4] | combination Emax [5] | combination Emax [6] | combination Emax [7] | combination Emax [8] | combination Emax [9] | combination Emax [10] | combination Emax [11] | combination Emax [12] | combination Emax [13] | combination Emax [14] | combination Emax [15] | combination Emax [16] | combination Emax [17] | combination Emax [18] | combination Emax [19] | combination Emax [20]
1 | CCN(CCO)CCCOc1ccc2c(Nc3cc(CC(=O)Nc4cccc(F)c4)[nH]n3)ncnc2c1 [AZD2811] + C[C@@H]1COCCN1C2=NC(=NC(=C2)C3(CC3)[S@](=N)(=O)C)C4=C5C=CNC5=NC=C4 [AZD6738] (first compound max 1 µM, 7x7, partner max 10 µM) | 0.252 | 0.583 | 0.477 | 0.308 | 0.289 | 0.279 | 0.764 | 1 | 0.621 | 0.278 | 0.913 | 0.312 | 0.941 | 0.634 | 0.832 | 0.663 | 0.968 | 0.0985 | 0.368 | 0.646
2 | CCN(CCO)CCCOc1ccc2c(Nc3cc(CC(=O)Nc4cccc(F)c4)[nH]n3)ncnc2c1 [AZD2811] + C=CCn1c(=O)c2cnc(Nc3ccc(N4CCN(C)CC4)cc3)nc2n1-c1cccc(C(C)(C)O)n1 [AZD1775] (first compound max 1 µM, partner max 1 µM) | 0.347 | 0.363 | 0.291 | 0.382 | 0.769 | 0.217 | 0.63 | 1 | 0.627 | 0.188 | 0.983 | 0.475 | 0.944 | 0.566 | 0.662 | 0.674 | 1 | 0.355 | 0.209 | 0.553
3 | Cc1nc(Nc2ncc(C(=O)Nc3c(C)cccc3Cl)s2)cc(N2CCN(CCO)CC2)n1 [Dasatinib] + CC(=O)Nc1cccc(-n2c(=O)n(C3CC3)c(=O)c3c(Nc4ccc(I)cc4F)n(C)c(=O)c(C)c32)c1 [Trametinib] (first compound max 2 µM, 7x7, partner max 1 µM) | 0.769 | 0.791 | 0.27 | 0.361 | 0.545 | 0.454 | 0.603 | 1 | 0.705 | 0.628 | 0.611 | 0.288 | 0.396 | 0.0355 | 0.254 | 0.233 | 0.691 | 1 | 0.61 | 0.492
4 | CC1(C)CCC(CN2CCN(c3ccc(C(=O)NS(=O)(=O)c4ccc(NCC5CCOCC5)c([N+](=O)[O-])c4)c(Oc4cnc5[nH]ccc5c4)c3)CC2)=C(c2ccc(Cl)cc2)C1 [Venetoclax] + C=CCn1c(=O)c2cnc(Nc3ccc(N4CCN(C)CC4)cc3)nc2n1-c1cccc(C(C)(C)O)n1 [AZD1775] (first compound max 1 µM, partner max 1 µM) | 0.546 | 0.715 | 0.305 | 0.286 | 0.597 | 0.467 | 0.946 | 0.986 | 0.734 | 0.244 | 0.978 | 0.299 | 1 | 0.835 | 0.746 | 0.647 | 1 | 0.343 | 0.307 | 0.713
5 | COc1cccc(OCCCN)c1-c1cc(Nc2cnc(C#N)cn2)n[nH]1 [Prexasertib] + O=C(c1cc(Cc2n[nH]c(=O)c3ccccc23)ccc1F)N1CCN(C(=O)C2CC2)CC1 [Olaparib] (first compound max 1 µM, 7x7, partner max 10 µM) | 0.58 | 0.593 | 0.424 | 0.387 | 0.834 | 0.408 | 0.964 | 1 | 0.747 | 0.722 | 0.973 | 0.253 | 1 | 0.912 | 0.923 | 0.825 | 1 | 0.532 | 0.469 | 0.779
6 | NC1(C(=O)N[C@@H](CCO)c2ccc(Cl)cc2)CCN(c2ncnc3[nH]ccc23)CC1 [Capivasertib] + CC(C)n1c(=O)n(C)c2cnc3cc(F)c(-c4ccc(OCCCN5CCCCC5)nc4)cc3c21 [AZD1390] (first compound max 10 µM, 7x7, partner max 0.3 µM) | 0.295 | 0.506 | 0.44 | 0.265 | 0.338 | 0.372 | 0.415 | 1 | 0.509 | 0.195 | 0.215 | 0.333 | 0.415 | 0.282 | 0.602 | 0.699 | 0.547 | 0.178 | 0.203 | 0.512
